The values that follow come from patent publication US9505735B2, “Compounds for treating infectious diseases” (Whitehead Institute for Biomedical Research, priority 2012, dated 2016).

SMILES strings stand for the structures.

Assay [1] has as its system fluconazole-resistant C. albicans strains CaCi2, 8 and 17. As to the kind of experiment: Filamentation, liquid assay. Format: cell-based. To be noted: 5 μM. The method, then: For liquid assays, C. albicans strains were grown overnight in YPD with DMSO or 5 μM gepinacin. After dilution to an OD600 of 0.1 in Spider media, growth was continued for an additional 3 hours with agitation at 37° C. in the presence of compound before transfer to a 24 well plate for imaging (Shen, et al. (2008) Proc Natl Acad Sci USA 105, 20918-20923). Assays with S. cerevisiae strain Sigma 1278B on solid media were performed as previously described (Liu, et al. (1994) Science 266, 1723-1726) except gepinacin was added directly to partially cooled plate media and colonies were imaged after growth for 6 or 9 days at 30° C.
Because of its role in tissue invasion, a key determinant of fungal virulence is the ability to switch between yeast and filamentous forms (Shapiro, et al. (2011) Microbiol Mol Biol Rev 75, 213-267; Sudbery, (2011) Nat Rev Microbiol 9, 737-748; Noble, et al. (2010) Nat Genet 42, 590-598). A previous report has shown that mature GPI-anchors are required for this process (Richard, et al. (2002) Microbiology 148, 2125-2133). […] In the absence of gepinacin, all three drug-resistant clinical isolates underwent marked transformation to large macroscopic mats, readily visible to the eye. […]

A further assay concerns Emp24-GFP. As to the kind of experiment: Emp24-GFP distribution (microscopy). The conditions noted are these: 5 μM, overnight. It is filed as cell-based, S. cerevisiae. On the procedure: (A) Anti-fungal susceptibility testing of gepinacin using suppressor strains 20-1 and 20-2. (B) The sequence of EMP24 in S. cerevisiae is shown with the location of mutations found by whole genome sequencing in the suppressor strains 20-1 and 20-2 indicated. The sequence in FIG. 4B corresponds to SEQ ID NO: 1. (C) Micrographs showing the redistribution of Emp24-GFP after overnight incubation with 5 μM gepinacin. Green fluorescence and DIC images are merged in the lower panels. Scale bar; 5 μm.
To determine if gepinacin does indeed alter trafficking and change Emp24 distribution yeast in which GFP was fused in frame to the 3′ end of genomic EMP24 were examined.

For `COc1ccc(NC(=O)COc2cccc(OCC(C)C)c2)cc1` [gepinacin], in assay [1], the “filamentation in Spider medium” value was “completely blocked”. For the same molecule, the Emp24-GFP localisation entry in the assay on Emp24-GFP is on record as “dramatically re-localized into large, bright dotlike structures”.
